The values that follow come from article PMC7031403, “A molecular switch regulating transcriptional repression and activation of PPARγ” (Nature Communications, 2020).

Common to all, as to test: Fluorescence polarization peptide interaction assay, NCoR ID2 peptide affinity, apo- or T0070907-bound wild type or mutant PPARγ LBD
Assay type in all cases: binding
A general note: Polarisation of emitted light reports the rotation of a fluorescent probe.

Experiment [1] deals with T1, PPARγ LBD (wild type or mutant) (Homo sapiens, UniProt P37231, R308A).
T1 construct: made in house; host or cells: Escherichia coli BL21(DE3)
The note with it: apo (DMSO) R280A PPARγ LBD; one site-total binding fit; read-out: NCoR ID2 peptide affinity, mean of fit (log scale) (converted). The method, then: (§1) Plates were incubated at 25 °C for 1 h, and fluorescence polarization was measured on a BioTek Synergy Neo multimode plate reader at […] wavelengths. Data were plotted using GraphPad Prism as fluorescence polarization signal in millipolarization units vs. protein concentration and fit to a one site—total binding equation.

Experiment [2] has as its target T2, PPARγ LBD (wild type or mutant) (Homo sapiens, UniProt P37231, Q322A).
T2 construct: made in house; host or cells: Escherichia coli BL21(DE3)
The note with it: apo (DMSO) Q294A PPARγ LBD; one site-total binding fit; read-out: NCoR ID2 peptide affinity, mean of fit (log scale) (converted). On the procedure: as §1

For experiment [3], the target named is T3, PPARγ LBD (wild type or mutant) (Homo sapiens, UniProt P37231, K395A).
T3 construct: made in house; host or cells: Escherichia coli BL21(DE3)
The following applies: apo (DMSO) K367A PPARγ LBD; one site-total binding fit; read-out: NCoR ID2 peptide affinity, mean of fit (log scale) (converted). On the procedure:
as §1

In experiment [4] the target is T4, PPARγ LBD (wild type or mutant) (Homo sapiens, UniProt P37231, E499R).
T4 construct: made in house; host or cells: Escherichia coli BL21(DE3)
The following applies: apo (DMSO) E471R PPARγ LBD; one site-total binding fit; read-out: NCoR ID2 peptide affinity, mean of fit (log scale) (converted). On the procedure: as §1

Experiment [5] deals with T5, PPARγ LBD (wild type or mutant) (Homo sapiens, UniProt P37231, N340A).
T5 construct: made in house; host or cells: Escherichia coli BL21(DE3)
The note with it: apo (DMSO) N312A PPARγ LBD; one site-total binding fit; read-out: NCoR ID2 peptide affinity, mean of fit (log scale) (converted). On the procedure: as §1

For experiment [6], the target named is T6, PPARγ LBD (wild type or mutant) (Homo sapiens, UniProt P37231, K329A).
T6 construct: made in house; host or cells: Escherichia coli BL21(DE3)
The note with it: apo (DMSO) K301A PPARγ LBD; one site-total binding fit; read-out: NCoR ID2 peptide affinity, mean of fit (log scale) (converted). The method, then:
as §1

In experiment [7] the target is T7, PPARγ LBD (wild type or mutant) (Homo sapiens, UniProt P37231, H477A).
T7 construct: made in house; host or cells: Escherichia coli BL21(DE3)
The following applies: apo (DMSO) H449A PPARγ LBD; one site-total binding fit; read-out: NCoR ID2 peptide affinity, mean of fit (log scale) (converted). On the procedure: as §1

Experiment [8] addresses T8, PPARγ LBD (wild type or mutant) (Homo sapiens, UniProt P37231, K347A).
T8 construct: made in house; host or cells: Escherichia coli BL21(DE3)
The following applies: apo (DMSO) K319A PPARγ LBD; one site-total binding fit; read-out: NCoR ID2 peptide affinity, mean of fit (log scale) (converted). The method, then: as §1

Experiment [9] concerns the target T9, PPARγ LBD (wild type or mutant) (Homo sapiens, UniProt P37231, H351A).
T9 construct: made in house; host or cells: Escherichia coli BL21(DE3)
The note with it: apo (DMSO) H323A PPARγ LBD; one site-total binding fit; read-out: NCoR ID2 peptide affinity, mean of fit (log scale) (converted). The method, then:
as §1

Experiment [10] has as its target T10, PPARγ LBD (wild type or mutant) (Homo sapiens, UniProt P37231, D503A).
T10 construct: made in house; host or cells: Escherichia coli BL21(DE3)
The following applies: apo (DMSO) D475A PPARγ LBD; one site-total binding fit; read-out: NCoR ID2 peptide affinity, mean of fit (log scale) (converted). On the procedure:
as §1

Experiment [11] has as its target T11, PPARγ LBD (wild type or mutant) (Homo sapiens, UniProt P37231, Y505A).
T11 construct: made in house; host or cells: Escherichia coli BL21(DE3)
The note with it: apo (DMSO) Y477A PPARγ LBD; one site-total binding fit; read-out: NCoR ID2 peptide affinity, mean of fit (log scale) (converted). The method, then: as §1

The target of experiment [12] is T12, PPARγ LBD (wild type or mutant) (Homo sapiens, UniProt P37231, Q314A).
T12 construct: made in house; host or cells: Escherichia coli BL21(DE3)
The note with it: apo (DMSO) Q286A PPARγ LBD; one site-total binding fit; read-out: NCoR ID2 peptide affinity, mean of fit (log scale) (converted). The method, then: as §1

Experiment [13] deals with T13, PPARγ LBD (wild type or mutant) (Homo sapiens, UniProt P37231, Q342A).
T13 construct: made in house; host or cells: Escherichia coli BL21(DE3)
The following applies: apo (DMSO) Q314A PPARγ LBD; one site-total binding fit; read-out: NCoR ID2 peptide affinity, mean of fit (log scale) (converted). On the procedure:
as §1

The target in experiment [14] is T14, PPARγ LBD (wild type or mutant) (Homo sapiens, UniProt P37231, R316A).
T14 construct: made in house; host or cells: Escherichia coli BL21(DE3)
The note with it: apo (DMSO) R288A PPARγ LBD; one site-total binding fit; read-out: NCoR ID2 peptide affinity, mean of fit (log scale) (converted). On the procedure:
as §1

Experiment [15] concerns the target T15, PPARγ LBD (wild type or mutant) (Homo sapiens, UniProt P37231, Y355A).
T15 construct: made in house; host or cells: Escherichia coli BL21(DE3)
The note with it: apo (DMSO) Y327A PPARγ LBD; one site-total binding fit; read-out: NCoR ID2 peptide affinity, mean of fit (log scale) (converted). On the procedure: as §1

The target in experiment [16] is T16, PPARγ LBD (wild type or mutant) (Homo sapiens, UniProt P37231, M392A).
T16 construct: made in house; host or cells: Escherichia coli BL21(DE3)
The note with it: apo (DMSO) M364A PPARγ LBD; one site-total binding fit; read-out: NCoR ID2 peptide affinity, mean of fit (log scale) (converted). The method, then: as §1

Experiment [17] addresses T17, PPARγ LBD (wild type or mutant) (Homo sapiens, UniProt P37231, E499A).
T17 construct: made in house; host or cells: Escherichia coli BL21(DE3)
The following applies: apo (DMSO) E471A PPARγ LBD; one site-total binding fit; read-out: NCoR ID2 peptide affinity, mean of fit (log scale) (converted). The method, then: as §1

Experiment [18] concerns the target T18, PPARγ LBD (wild type or mutant) (Homo sapiens, UniProt P37231, D503R).
T18 construct: made in house; host or cells: Escherichia coli BL21(DE3)
The note with it: apo (DMSO) D475R PPARγ LBD; one site-total binding fit; read-out: NCoR ID2 peptide affinity, mean of fit (log scale) (converted). On the procedure: as §1

Structures are written as SMILES.

T3 sequence (P37231 231-505 K395A): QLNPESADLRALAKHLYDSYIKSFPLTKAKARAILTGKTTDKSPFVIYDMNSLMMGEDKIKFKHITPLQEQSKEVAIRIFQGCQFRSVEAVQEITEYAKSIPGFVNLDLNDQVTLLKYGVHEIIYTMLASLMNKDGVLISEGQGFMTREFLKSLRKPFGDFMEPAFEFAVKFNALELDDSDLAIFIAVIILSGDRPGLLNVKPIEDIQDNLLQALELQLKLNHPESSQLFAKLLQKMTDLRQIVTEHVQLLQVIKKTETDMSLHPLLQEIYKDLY
T3 sequence (O75376 2256-2278 partner): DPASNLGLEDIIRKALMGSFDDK
T14 sequence (P37231 231-505 R316A): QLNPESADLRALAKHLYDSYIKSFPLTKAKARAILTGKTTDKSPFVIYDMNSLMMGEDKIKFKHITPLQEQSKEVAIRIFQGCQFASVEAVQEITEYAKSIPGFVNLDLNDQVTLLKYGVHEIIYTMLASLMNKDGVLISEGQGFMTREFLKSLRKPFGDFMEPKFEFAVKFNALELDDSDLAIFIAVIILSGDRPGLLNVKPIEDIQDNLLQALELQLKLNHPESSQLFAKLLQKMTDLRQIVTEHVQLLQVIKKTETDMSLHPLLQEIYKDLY
T7 sequence (P37231 231-505 H477A): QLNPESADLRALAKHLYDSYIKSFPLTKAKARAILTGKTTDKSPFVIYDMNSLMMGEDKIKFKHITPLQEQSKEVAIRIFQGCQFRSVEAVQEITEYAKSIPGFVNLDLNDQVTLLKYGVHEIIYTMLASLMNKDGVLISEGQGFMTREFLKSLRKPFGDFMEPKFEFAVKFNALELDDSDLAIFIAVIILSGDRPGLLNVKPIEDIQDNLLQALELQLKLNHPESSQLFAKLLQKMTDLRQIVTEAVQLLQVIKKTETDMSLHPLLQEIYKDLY
T15 sequence (P37231 231-505 Y355A): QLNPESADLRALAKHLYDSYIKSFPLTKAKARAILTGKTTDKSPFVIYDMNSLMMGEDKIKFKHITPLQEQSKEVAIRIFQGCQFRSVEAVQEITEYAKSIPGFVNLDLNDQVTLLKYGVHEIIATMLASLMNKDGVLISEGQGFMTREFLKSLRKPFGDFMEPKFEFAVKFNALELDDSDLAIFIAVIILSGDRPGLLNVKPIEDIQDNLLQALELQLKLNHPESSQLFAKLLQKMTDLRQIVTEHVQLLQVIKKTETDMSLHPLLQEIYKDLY
T17 sequence (P37231 231-505 E499A): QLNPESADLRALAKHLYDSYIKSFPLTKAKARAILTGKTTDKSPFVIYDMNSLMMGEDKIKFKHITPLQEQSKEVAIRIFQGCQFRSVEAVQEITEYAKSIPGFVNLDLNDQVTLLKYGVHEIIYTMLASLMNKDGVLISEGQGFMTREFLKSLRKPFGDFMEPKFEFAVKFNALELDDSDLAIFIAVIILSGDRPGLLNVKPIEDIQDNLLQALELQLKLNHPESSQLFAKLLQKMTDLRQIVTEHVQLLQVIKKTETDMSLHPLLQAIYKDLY
T8 sequence (P37231 231-505 K347A): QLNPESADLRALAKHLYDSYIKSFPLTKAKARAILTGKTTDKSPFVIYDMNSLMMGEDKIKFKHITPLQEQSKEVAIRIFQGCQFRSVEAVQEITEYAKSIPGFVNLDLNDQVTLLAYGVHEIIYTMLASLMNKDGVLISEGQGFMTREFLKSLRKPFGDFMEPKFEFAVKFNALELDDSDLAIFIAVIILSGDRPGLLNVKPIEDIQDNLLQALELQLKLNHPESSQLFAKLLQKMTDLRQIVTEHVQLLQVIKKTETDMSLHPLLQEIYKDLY
T1 sequence (P37231 231-505 R308A): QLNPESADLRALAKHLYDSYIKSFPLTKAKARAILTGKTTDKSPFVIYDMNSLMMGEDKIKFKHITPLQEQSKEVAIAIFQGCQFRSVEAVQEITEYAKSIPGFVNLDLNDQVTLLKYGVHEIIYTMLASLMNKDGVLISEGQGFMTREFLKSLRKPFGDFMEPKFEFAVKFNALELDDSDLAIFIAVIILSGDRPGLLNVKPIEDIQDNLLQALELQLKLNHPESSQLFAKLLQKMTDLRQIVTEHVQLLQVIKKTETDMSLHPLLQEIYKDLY
T9 sequence (P37231 231-505 H351A): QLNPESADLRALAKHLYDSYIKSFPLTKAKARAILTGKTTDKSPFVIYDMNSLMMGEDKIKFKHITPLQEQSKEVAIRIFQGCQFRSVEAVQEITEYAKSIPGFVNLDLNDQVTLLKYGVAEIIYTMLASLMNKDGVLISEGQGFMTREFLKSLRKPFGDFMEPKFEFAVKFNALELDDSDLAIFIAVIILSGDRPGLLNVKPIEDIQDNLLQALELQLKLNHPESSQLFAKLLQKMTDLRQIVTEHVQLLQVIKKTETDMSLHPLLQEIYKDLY
T18 sequence (P37231 231-505 D503R): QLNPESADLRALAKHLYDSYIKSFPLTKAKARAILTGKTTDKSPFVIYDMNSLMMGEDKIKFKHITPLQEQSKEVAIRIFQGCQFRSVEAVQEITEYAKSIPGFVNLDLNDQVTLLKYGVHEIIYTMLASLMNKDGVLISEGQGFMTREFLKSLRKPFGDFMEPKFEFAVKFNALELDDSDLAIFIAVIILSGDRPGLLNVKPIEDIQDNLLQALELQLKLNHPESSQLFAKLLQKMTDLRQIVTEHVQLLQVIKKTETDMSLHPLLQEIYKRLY
T10 sequence (P37231 231-505 D503A): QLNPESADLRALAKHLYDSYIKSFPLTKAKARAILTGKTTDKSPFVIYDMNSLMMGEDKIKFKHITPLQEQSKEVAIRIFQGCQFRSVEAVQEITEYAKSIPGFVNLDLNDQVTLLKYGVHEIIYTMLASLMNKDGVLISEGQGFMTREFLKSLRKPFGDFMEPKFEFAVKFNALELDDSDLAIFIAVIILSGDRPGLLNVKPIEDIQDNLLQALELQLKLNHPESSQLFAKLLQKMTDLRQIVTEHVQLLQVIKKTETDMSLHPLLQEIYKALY
T5 sequence (P37231 231-505 N340A): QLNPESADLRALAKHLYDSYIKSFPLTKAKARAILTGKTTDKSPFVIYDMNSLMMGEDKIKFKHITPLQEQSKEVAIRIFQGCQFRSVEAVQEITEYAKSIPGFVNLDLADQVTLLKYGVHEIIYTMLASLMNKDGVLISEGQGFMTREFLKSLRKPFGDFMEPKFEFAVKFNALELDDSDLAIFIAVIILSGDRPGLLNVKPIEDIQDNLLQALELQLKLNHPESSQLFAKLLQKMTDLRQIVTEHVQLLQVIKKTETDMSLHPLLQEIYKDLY
T12 sequence (P37231 231-505 Q314A): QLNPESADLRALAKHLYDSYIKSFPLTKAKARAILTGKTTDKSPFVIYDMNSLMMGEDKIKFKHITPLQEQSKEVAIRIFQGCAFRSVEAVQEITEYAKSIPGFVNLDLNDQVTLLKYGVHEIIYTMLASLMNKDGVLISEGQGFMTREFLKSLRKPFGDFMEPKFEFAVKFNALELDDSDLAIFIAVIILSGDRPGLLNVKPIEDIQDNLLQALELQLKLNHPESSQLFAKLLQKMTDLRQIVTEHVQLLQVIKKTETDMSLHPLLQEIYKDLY
T6 sequence (P37231 231-505 K329A): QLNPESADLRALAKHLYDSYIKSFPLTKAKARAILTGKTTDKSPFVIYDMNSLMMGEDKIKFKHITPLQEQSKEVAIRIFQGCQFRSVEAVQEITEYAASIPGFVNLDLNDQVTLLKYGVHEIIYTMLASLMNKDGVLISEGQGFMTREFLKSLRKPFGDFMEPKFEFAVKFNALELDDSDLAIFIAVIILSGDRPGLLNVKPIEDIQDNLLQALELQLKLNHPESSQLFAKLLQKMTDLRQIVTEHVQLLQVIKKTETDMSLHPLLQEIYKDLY
T2 sequence (P37231 231-505 Q322A): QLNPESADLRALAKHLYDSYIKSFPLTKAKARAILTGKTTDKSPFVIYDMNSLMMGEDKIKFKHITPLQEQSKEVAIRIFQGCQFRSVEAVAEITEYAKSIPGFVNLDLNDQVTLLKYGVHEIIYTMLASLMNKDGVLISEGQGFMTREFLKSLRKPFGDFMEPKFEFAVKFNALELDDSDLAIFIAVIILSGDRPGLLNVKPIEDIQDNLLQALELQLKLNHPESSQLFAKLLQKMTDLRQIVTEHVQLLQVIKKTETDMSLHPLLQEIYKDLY
T13 sequence (P37231 231-505 Q342A): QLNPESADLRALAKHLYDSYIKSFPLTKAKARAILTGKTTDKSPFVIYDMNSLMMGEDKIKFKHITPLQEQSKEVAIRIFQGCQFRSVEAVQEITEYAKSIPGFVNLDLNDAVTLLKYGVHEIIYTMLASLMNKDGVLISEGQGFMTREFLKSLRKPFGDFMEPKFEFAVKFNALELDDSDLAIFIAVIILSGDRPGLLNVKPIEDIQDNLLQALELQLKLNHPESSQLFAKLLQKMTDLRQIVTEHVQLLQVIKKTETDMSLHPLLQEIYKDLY

As for `CC[C@H](C)[C@H](NC(=O)[C@H](CC(=O)O)NC(=O)[C@H](CCC(=O)O)NC(=O)[C@H](CC(C)C)NC(=O)CNC(=O)[C@H](CC(C)C)NC(=O)[C@H](CC(N)=O)NC(=O)[C@H](CO)NC(=O)[C@H](C)NC(=O)[C@@H]1CCCN1C(=O)[C@H](CC(=O)O)NC(=O)CCCCCNC(=S)Nc1ccc2c(c1)C(=O)OC21c2ccc(O)cc2Oc2cc(O)ccc21)C(=O)N[C@H](C(=O)N[C@@H](CCCNC(=N)N)C(=O)N[C@@H](CCCCN)C(=O)N[C@@H](C)C(=O)N[C@@H](CC(C)C)C(=O)N[C@@H](CCSC)C(=O)NCC(=O)N[C@@H](CO)C(=O)N[C@@H](Cc1ccccc1)C(=O)N[C@@H](CC(=O)O)C(=O)N[C@@H](CC(=O)O)C(=O)N[C@@H](CCCCN)C(N)=O)[C@@H](C)CC` [NCoR-D2], the Kd in experiment [1] was 766 nM; in [2], 2420 nM; in [3] it was 1080 nM; in experiment [4], 348 nM; in experiment [5], 1410 nM; in [6], 4930 nM. The Kd in [7] was 1490 nM; in experiment [8], 2580 nM; in experiment [9] it was 621 nM; in [10] it was 621 nM; in experiment [11], 822 nM; in [12], 807 nM. Besides, the Kd in experiment [13] is 867 nM; in experiment [14], 1200 nM; in [15] it was 590 nM; in experiment [16] it was 38700 nM; in experiment [17], 525 nM; in experiment [18], 522 nM.
